Assay results: US20030032639A1, “Composition and method for reducing adverse interactions between phenothiazine derivatives and plasma using surfactants and amino acids” (Wyeth, priority 2001, published 2003)

Legend:
[1] = promethazine hydrochloride preparation mixed with plasma in vitro, relative amount of precipitate formed; assay type: physicochemical; details: laboratory studies, ratio not stated
Source text: Without being bound by any particular theory, it is believed that this precipitate formation could be related to the venous thrombosis found at the injection site, as well as the cause of other local adverse reactions involving promethazine injection. […] With a composition according to one or more of the embodiments set forth herein, it is expected that a promethazine solution given by the routes of i.v. and i.m. (intramuscular) injection would have fewer incidences of irritation and other adverse reactions at the site of injection.

[2] = after intramuscular injection; cited from earlier work
[3] = cited from earlier work

precipitate formation when solution is mixed with plasma [1]: precipitates form immediately
SMILES: CC(CN1c2ccccc2Sc2ccccc21)N(C)C.Cl (racemic) [promethazine hydrochloride, 10H-Phenothiazine-10-ethanamine, N,N, α-trimethyl-, monohydrochloride, (±)]
plasma creatine kinase levels (indication of muscle irritation) [2]: raise plasma creatine kinase levels | adverse reactions at the local area of injection ([3]; clinical case reports): irritation and other serious adverse reactions at the local area of injection, particularly gangrene at the extremity of the injection site | venous thrombosis at the injection site ([3]; in vivo, iv): some incidents of venous thrombosis at the injection site
